Consider one molecule from patent publication US20130022558A1, “Methods For Imrproving the Appearance of Hyperpigmented Spot(s) and Skin Tone” (priority 2011, published 2013).

For this assay, the system named is hyperpigmented spots on facial skin. Nature of the assay: In vivo testing for hyperpigmented spot reduction (melanin Spot Area Fraction, split face, image analysis). Further details: species or system human subjects. The conditions noted are these: baseline to Week 8, Beijing, approx. January 21 to March 21; compared to the vehicle. An excerpt: The 270 subjects were screened according to inclusion/exclusion criteria which included the following:
Is willing to refrain from sun exposure by using supplied UV lotion and physical UV blocks, such as a hat, to avoid facial sunburn, tanning or wind burn.
• 1. […] Two hundred and seventy subjects were recruited for the study.

As to `NC(=O)c1cccnc1` [naicinamide, niacinamide], the “effect on seasonal skin darkening, in words” value was “mitigated the effects of seasonal skin darkening”.
